From ChEMBL document CHEMBL2177022, “Novel acidic 11β-hydroxysteroid dehydrogenase type 1 (11β-HSD1) inhibitor with reduced acyl glucuronide liability: the discovery of 4-[4-(2-adamantylcarbamoyl)-5-tert-butyl-pyrazol-1-yl]benzoic acid (AZD8329)” (J Med Chem, 2012)

Key:
[1] = Oral bioavailability in rat; format: ADME, organism-based; conditions: in vivo
[2] = Intrinsic clearance in rat hepatocytes assessed per 10^6 cells
[3] = Lipophilicity, log D at pH 7.4 by shake flask method; conditions: buffer
[4] = in vivo; conditions: rat
[5] = Percentage unbound in rat plasma at 37 degC by equilibrium dialysis method; format: ADME, cell-free
[6] = Stability in bile duct cannulated rat bile assessed as parent compound remaining measured during 0 to 6 hrs post dose; format: ADME; conditions: in vivo
[7] = Drug metabolism in bile duct cannulated rat bile assessed as oxidative metabolism level during 0 to 6 hrs post dose by metabolism-ID study; format: ADME; conditions: in vivo
[8] = Drug metabolism in bile duct cannulated rat urine assessed as ratio of glucuronidation to oxidative metabolism level during 0 to 6 hrs post dose by metabolism-ID study; format: ADME, tissue-based; conditions: in vivo
[9] = system: Hepatocyte; experiment: Drug metabolism in human hepatocytes assessed as ratio of glucuronidation to oxidative metabolism level by metabolism-ID study; format: ADME, cell-based
[10] = Drug metabolism in dog hepatocytes assessed as ratio of glucuronidation to oxidative metabolism level by metabolism-ID study; format: ADME, cell-based, Canis lupus familiaris, Hepatocyte
[11] = Drug metabolism in bile duct cannulated rat bile assessed as ratio of glucuronidation to oxidative metabolism level during 0 to 6 hrs post dose by metabolism-ID study; format: ADME; conditions: in vivo
[12] = Inhibition of N-terminal 6-His tagged full length cynomolgus monkey 11betaHSD1 incubated for 25 mins by HTRF assay; design: species or system Macaca fascicularis
[13] = Drug metabolism in dog hepatocytes assessed as oxidative metabolism level by metabolism-ID study; format: ADME, cell-based, Canis lupus familiaris, Hepatocyte
[14] = Stability in bile duct cannulated rat urine assessed as parent compound remaining measured during 0 to 6 hrs post dose; format: ADME, tissue-based; conditions: in vivo
[15] = system: Hepatocyte; experiment: Drug metabolism in rat hepatocytes assessed as ratio of glucuronidation to oxidative metabolism level by metabolism-ID study; format: ADME, cell-based
[16] = Inhibition of N-terminal 6-His tagged full length dog 11betaHSD1 incubated for 25 mins by HTRF assay; design: species or system Canis lupus familiaris
[17] = Drug metabolism in bile duct cannulated rat urine assessed as oxidative metabolism level during 0 to 6 hrs post dose by metabolism-ID study; format: ADME, tissue-based; conditions: in vivo

| SMILES | bioavailability [1] [%] | hepatocyte CLint [2] [µL/min/1e6 cells] | logD [3] | clearance [4] [mL/min/kg] | fraction unbound [5] | further results |
| --- | --- | --- | --- | --- | --- | --- |
| CCCSc1c(C(=O)NC2CCCCC2)cnn1-c1ccc(C(=O)O)cc1 | 72 | < 3 | 0.6 | 4.5 | 0.04 | – |
| CCCSc1c(C(=O)NC2CCCCC2)cnn1[C@H]1CC[C@H](C(=O)O)CC1 | 100 | 7.5 | 1 | 2.5 | 0.093 | – |
| CCCSc1c(C(=O)NC2CCCCC2)cnn1C | 0 | – | 3 | – | 0.132 | – |
| CCCSc1c(C(=O)NC2CCCCC2)cnn1-c1cccc(C(=O)O)c1 | > 100 | 17 | 0.7 | 17 | 0.02 | – |
| CCCSc1c(C(=O)N[C@H]2C3CC4CC2C[C@](OC(F)F)(C4)C3)cnn1-c1ccc(C(=O)O)cc1 | 40 | 18 | 1.2 | 9.4 | 0.026 | – |
| CCCSc1nc(N2CCC[C@@H](CC(=O)O)C2)ccc1C(=O)NC1CCCCC1 [AZD-4017] | – | – | – | – | – | Stability [6]: 15%; Drug metabolism [7]: 10%; Ratio [8]: 2.4; Ratio [9]: 6; Ratio [10]: 4.1; Ratio [11]: 7.5; IC50 [12]: 29 nM; Drug metabolism [13]: 13%; Stability [14]: 4%; Ratio [15]: 2.1; IC50 [16]: 3770 nM; Drug metabolism [17]: 28% |
| CCCSc1c(C(=O)N(C)C2CCCCC2)cnn1-c1ccc(C(=O)O)cc1 | 26 | 26 | 0.6 | 8.1 | 0.025 | – |
| CCCSc1c(C(=O)N[C@H]2C3CC4CC2C[C@](S(C)(=O)=O)(C4)C3)cnn1-c1ccc(C(=O)O)cc1 | 7 | – | < 0.5 | – | 0.134 | – |
| CCCSc1c(C(=O)NC2CCCCC2)cnn1[C@H]1CC[C@@H](C(=O)O)CC1 | 49 | 58 | 1.4 | 43 | – | – |
| CCCSc1c(C(=O)N[C@H]2C3CC4CC2C[C@](OC)(C4)C3)cnn1-c1ccc(C(=O)O)cc1 | 54 | < 2 | < 0.5 | 13 | 0.285 | – |
| CCCSc1ncccc1C(=O)NC1CCCCC1 | – | – | 3.2 | – | – | – |

Further lines, with some results ahead:

| bioavailability [1] [%] | hepatocyte CLint [2] [µL/min/1e6 cells] | logD [3] | clearance [4] [mL/min/kg] | fraction unbound [5] | SMILES | further results |
| --- | --- | --- | --- | --- | --- | --- |
| > 100 | – | – | – | 0.045 | O=C(O)c1ccc(-n2ncc(C(=O)NC3C4CC5CC(C4)CC3C5)c2C(F)(F)F)cc1 (centres undefined) | – |
| 82 | 9.4 | 3 | 3.6 | 0.0013 | O=C(O)c1ccc(-n2ncc(C(=O)NC3C4CC5CC(C4)CC3C5)c2SC2CCCCC2)cc1 (centres undefined) | – |
| 53 | < 2 | 1.2 | 2.2 | 0.036 | CC(C)c1c(C(=O)NC2C3CC4CC(C3)CC2C4)cnn1-c1ccc(C(=O)O)cc1 (centres undefined) | – |
| > 100 | < 3 | – | 8 | 0.127 | Cc1c(C(=O)NC2C3CC4CC(C3)CC2C4)cnn1-c1ccc(C(=O)O)cc1 (centres undefined) | – |
| 64 | < 2 | 1.2 | 11 | 0.0336 | CSc1c(C(=O)NC2C3CC4CC(C3)CC2C4)cnn1-c1ccc(C(=O)O)cc1 (centres undefined) | – |
| – | 6.6 | – | – | 0.107 | O=C(O)c1ccc(-n2cc(C(=O)NC3C4CC5CC(C4)CC3C5)cn2)cc1 (centres undefined) | – |
| 57 | 14 | 2.6 | 3.3 | 0.0015 | O=C(O)c1ccc(-n2ncc(C(=O)NC3C4CC5CC(C4)CC3C5)c2SC2CCCC2)cc1 (centres undefined) | – |
| 51 | 15 | 0.9 | 14 | 0.045 | O=C(O)c1ccc(-n2ncc(C(=O)NC3C4CC5CC(C4)CC3C5)c2C2CC2)cc1 (centres undefined) | – |
| 10 | < 2 | -0.4 | 20 | 0.105 | CCCSc1c(C(=O)N[C@H]2C3CC4CC2C[C@](O)(C4)C3)cnn1-c1ccc(C(=O)O)cc1 | – |
| > 100 | – | 0.9 | – | 0.06 | CCc1c(C(=O)NC2C3CC4CC(C3)CC2C4)cnn1-c1ccc(C(=O)O)cc1 (centres undefined) | – |
| > 100 | – | 1.7 | – | 0.004 | O=C(O)c1ccc(-n2ncc(C(=O)NC3C4CC5CC(C4)CC3C5)c2C2CCCC2)cc1 (centres undefined) | – |
| 65 | 6 | 1.5 | 3 | 0.0131 | CCSc1c(C(=O)NC2C3CC4CC(C3)CC2C4)cnn1-c1ccc(C(=O)O)cc1 (centres undefined) | – |
| > 100 | 11 | 1.1 | 19 | 0.033 | CC1(c2c(C(=O)NC3C4CC5CC(C4)CC3C5)cnn2-c2ccc(C(=O)O)cc2)CC1 (centres undefined) | – |
| > 100 | < 3 | – | 1.3 | 0.012 | O=C(O)c1ccc(-n2ncc(C(=O)NC3C4CC5CC(C4)CC3C5)c2C2CCC2)cc1 (centres undefined) | – |
| 45 | – | 1.8 | – | 0.005 | CCCSc1c(C(=O)NC2C3CC4CC(C3)CC2C4)cnn1-c1ccc(C(=O)O)cc1 (centres undefined) | – |
